The results in this text go back to publication PMC7582192, “Targeting N-myristoylation for therapy of B-cell lymphomas” (Nature Communications, 2020).

The test deals with T1, Lyn (Homo sapiens, UniProt P07948).
T1 construct: endogenous Lyn in BL2 cells
As to the kind of experiment: western blot of P-Lyn (Y396) in anti-IgM stimulated BL2 cells, […] for […] h. It is filed as cell-based.

T1 sequence (P07948 2-512): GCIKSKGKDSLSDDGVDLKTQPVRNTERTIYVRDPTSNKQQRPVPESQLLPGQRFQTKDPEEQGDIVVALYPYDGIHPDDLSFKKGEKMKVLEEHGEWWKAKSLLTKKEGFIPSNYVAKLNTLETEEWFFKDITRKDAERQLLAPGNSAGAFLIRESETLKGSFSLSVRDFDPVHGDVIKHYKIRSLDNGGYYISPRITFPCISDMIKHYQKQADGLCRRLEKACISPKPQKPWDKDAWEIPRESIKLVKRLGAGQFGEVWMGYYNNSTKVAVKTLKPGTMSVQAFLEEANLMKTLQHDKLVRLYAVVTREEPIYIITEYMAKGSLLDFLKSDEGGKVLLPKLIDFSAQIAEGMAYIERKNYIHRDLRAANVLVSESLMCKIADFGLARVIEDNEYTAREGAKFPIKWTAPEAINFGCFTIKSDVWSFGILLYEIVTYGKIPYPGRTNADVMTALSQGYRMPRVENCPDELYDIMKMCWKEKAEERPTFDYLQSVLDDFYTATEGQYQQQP

For the compound `Cc1nc(Nc2ncc(C(=O)Nc3c(C)cccc3Cl)s2)cc(N2CCN(CCO)CC2)n1` [dasatinib], the “western blot of P-Lyn (Y396) in anti-IgM stimulated BL2 cells, 0.1 or 1.0 μM for” value is “Dasatinib and ibrutinib selectively inhibited their respective targets as measured using anti-P-Lyn, anti-P-SFKs, and anti-P-BTK antibodies”.
